In patent US9211310B2, “Use of a Chinese medicine composition in preparing medicaments for treating secondary prevention of myocardial infarction” (TASLY PHARMACEUTICAL GROUP CO., LTD, priority 2010, dated 2015):

Tested on: patients after acute myocardial infarction
Test: Life quality, Seattle Angina Questionnaire (SAQ), same clinical trial
Type: in vivo, human
Conditions: PP
Text: 3508 patients who were in accordance with the diagnostic standards of AMI for 28 days to 2 years and differentiated as Qi deficiency and blood stagnation syndrome by TCM were studied. 0.5 g Chinese medicine composition prepared by the method of EXAMPLE 1 (Coded as QSYQ) was administrated half an hour after meal, 3 times per day.
There were 19 questions in the Seattle angina questionnaire (SAQ), including 5 parts: physical limitation (PL), anginal stability (AS), anginal frequency (AF), treatment satisfaction (TS) and disease perception (DP). After being given necessary explanation by doctors, the questions were answered independently by patients.
They included the overall survival time, angina pectoris score, TCM symptom score and life quality score, where angina pectoris score, TCM symptom score and life quality score were evaluated at randomization, in 1st, 3rd, 6th, 9th, 12th month after treatment and 18th month after follow-up.
All evaluation results of SAQ were described during the period of observation, and Wilcoxon rank sum test was used for inter-group comparison.
The evaluation results in the SAQ were depicted in different observations, and inter-group comparison was tested by Wilcoxon Rank-sum test.

[1] = Follow-up, second line headed Not limited (r60)

CC(=O)Oc1ccccc1C(=O)O [Control group, aspirine]
SAQ 7th question, Highly satisfied: % of patients (Baseline): (20.32%)
SAQ 7th question, Highly satisfied: number of patients (Baseline): 304
SAQ 7th question, Mostly dissatisfied: % of patients (Baseline): (4.88%)
SAQ 7th question, Mostly dissatisfied: number of patients (Baseline): 73
SAQ 7th question, Mostly satisfied: % of patients (Baseline): (46.52%)
SAQ 7th question, Mostly satisfied: number of patients (Baseline): 696
SAQ 7th question, Partly satisfied: % of patients (Baseline): (27.94%)
SAQ 7th question, Partly satisfied: number of patients (Baseline): 418
SAQ Question 1-1 Mildly limited, number of patients (Baseline): 30
SAQ Question 1-1 Mildly limited, percent of patients (Baseline): (2.01%)
SAQ Question 1-1 Moderately limited, number of patients (Baseline): 13
SAQ Question 1-1 Moderately limited, percent of patients (Baseline): (0.87%)
SAQ Question 1-1 Not limited, number of patients (Baseline): 1359
SAQ Question 1-1 Not limited, percent of patients (Baseline): (90.96%)
SAQ Question 1-1 Other reasons, number of patients (Baseline): 4
SAQ Question 1-1 Other reasons, percent of patients (Baseline): (0.27%)
SAQ Question 1-1 Severely limited, number of patients (Baseline): 1
SAQ Question 1-1 Severely limited, percent of patients (Baseline): (0.07%)
SAQ Question 1-1 Slightly limited, number of patients (Baseline): 87
SAQ Question 1-1 Slightly limited, percent of patients (Baseline): (5.82%)
SAQ Question 1-2 Mildly limited, number of patients (Baseline): 42
SAQ Question 1-2 Mildly limited, percent of patients (Baseline): (2.81%)
SAQ Question 1-2 Moderately limited, number of patients (Baseline): 13
SAQ Question 1-2 Moderately limited, percent of patients (Baseline): (0.87%)
SAQ Question 1-2 Not limited, number of patients (Baseline): 1319
SAQ Question 1-2 Not limited, percent of patients (Baseline): (88.29%)
SAQ Question 1-2 Other reasons, number of patients (Baseline): 5
SAQ Question 1-2 Other reasons, percent of patients (Baseline): (0.33%)
SAQ Question 1-2 Severely limited, number of patients (Baseline): 2
SAQ Question 1-2 Severely limited, percent of patients (Baseline): (0.13%)
SAQ Question 1-2 Slightly limited, percent of patients (Baseline): (7.56%)
SAQ Question 1-6: Mildly limited, patients (%) (Baseline): (20.58%)
SAQ Question 1-6: Moderately limited, patients (%) (Baseline): (18.43%)
SAQ Question 1-6: Not limited, patients (%) (Baseline): (25.02%)
SAQ Question 1-6: Other reasons, patients (%) (Baseline): (1.01%)
SAQ Question 1-6: Severely limited, patients (%) (Baseline): (6.99%)
SAQ Question 1-6: Slightly limited, patients (%) (Baseline): (27.98%)
SAQ Question 1-7: Mildly limited, patients (%) (Baseline): (25.03%)
SAQ Question 1-7: Moderately limited, patients (%) (Baseline): (19.44%)
SAQ Question 1-7: Not limited, patients (%) (Baseline): (9.62%)
SAQ Question 1-7: Other reasons, patients (%) (Baseline): (3.14%)
SAQ Question 1-7: Severely limited, patients (%) (Baseline): (21.49%)
SAQ Question 1-7: Slightly limited, patients (%) (Baseline): (21.28%)
SAQ Question 1-8: Mildly limited, patients (%) (Baseline): (24.40%)
SAQ Question 1-8: Moderately limited, patients (%) (Baseline): (22.43%)
SAQ Question 1-8: Not limited, patients (%) (Baseline): (7.43%)
SAQ Question 1-8: Other reasons, patients (%) (Baseline): (2.52%)
SAQ Question 1-8: Severely limited, patients (%) (Baseline): (26.45%)
SAQ Question 1-8: Slightly limited, patients (%) (Baseline): (16.77%)
8th question: Dissatisfied, patients (%) (Follow-up): (0.07%)
8th question: Highly satisfied, patients (%) (Follow-up): (28.16%)
8th question: Mostly dissatisfied, patients (%) (Follow-up): (0.64%)
8th question: Mostly satisfied, patients (%) (Follow-up): (60.27%)
8th question: Partly satisfied, patients (%) (Follow-up): (10.87%)
9th question: Few, patients (%) (Follow-up): (44.23%)
9th question: Mild, patients (%) (Follow-up): (27.32%)
9th question: Moderate, patients (%) (Follow-up): (3.87%)
9th question: Severe, patients (%) (Follow-up): (0.14%)
9th question: Uneffective, patients (%) (Follow-up): (24.44%)
10th question: Dissatisfied, patients (%) (Follow-up): (18.11%)
10th question: Highly satisfied, patients (%) (Follow-up): (9.51%)
10th question: Mostly dissatisfied, patients (%) (Follow-up): (19.38%)
10th question: Mostly satisfied, patients (%) (Follow-up): (32.21%)
10th question: Partly satisfied, patients (%) (Follow-up): (20.79%)
11th question: Continuously worried, patients (%) (Follow-up): (1.34%)
11th question: No worried, patients (%) (Follow-up): (8.74%)
11th question: Occasionally worried, patients (%) (Follow-up): (38.83%)
11th question: Often worried, patients (%) (Follow-up): (6.84%)
11th question: Seldom worried, patients (%) (Follow-up): (44.26%)
SAQ 4th question, 1-2 times per week: % of patients (Follow-up): (13.17%)
SAQ 4th question, 1-2 times per week: number of patients (Follow-up): 186
SAQ 4th question, 1-3 times per week: % of patients (Follow-up): (2.83%)
SAQ 4th question, 1-3 times per week: number of patients (Follow-up): 40
SAQ 4th question, <1 time per week: % of patients (Follow-up): (16.08%)
SAQ 4th question, <1 time per week: number of patients (Follow-up): 227
SAQ 4th question, Not used: % of patients (Follow-up): (66.08%)
SAQ 4th question, Not used: number of patients (Follow-up): 933
SAQ 4th question, ≧3 times per week: % of patients (Follow-up): (1.84%)
SAQ 4th question, ≧3 times per week: number of patients (Follow-up): 26
SAQ 4th question, ≧4 times per day: % of patients (Follow-up): (0.00%)
SAQ 4th question, ≧4 times per day: number of patients (Follow-up): 0
SAQ 5th question, 1-2 times per week: % of patients (Follow-up): (32.86%)
SAQ 5th question, 1-2 times per week: number of patients (Follow-up): 465
SAQ 5th question, 1-3 times per day: % of patients (Follow-up): (3.18%)
SAQ 5th question, 1-3 times per day: number of patients (Follow-up): 45
SAQ 5th question, <1 time per week: % of patients (Follow-up): (31.24%)
SAQ 5th question, <1 time per week: number of patients (Follow-up): 442
SAQ 5th question, No onset: % of patients (Follow-up): (7.49%)
SAQ 5th question, No onset: number of patients (Follow-up): 106
SAQ 5th question, ≧3 times per week: % of patients (Follow-up): (25.09%)
SAQ 5th question, ≧3 times per week: number of patients (Follow-up): 355
SAQ 5th question, ≧4 times per day: % of patients (Follow-up): (0.14%)
SAQ 5th question, ≧4 times per day: number of patients (Follow-up): 2
SAQ 6th question, Dissatisfied: % of patients (Follow-up): (0.00%)
SAQ 6th question, Dissatisfied: number of patients (Follow-up): 0
SAQ 6th question, Highly satisfied: % of patients (Follow-up): (28.52%)
SAQ 6th question, Highly satisfied: number of patients (Follow-up): 405
SAQ 6th question, Mostly dissatisfied: % of patients (Follow-up): (0.63%)
SAQ 6th question, Mostly dissatisfied: number of patients (Follow-up): 9
SAQ 6th question, Mostly satisfied: % of patients (Follow-up): (62.25%)
SAQ 6th question, Mostly satisfied: number of patients (Follow-up): 884
SAQ 6th question, Partly satisfied: % of patients (Follow-up): (8.59%)
SAQ 6th question, Partly satisfied: number of patients (Follow-up): 122
SAQ 7th question, Dissatisfied: % of patients (Follow-up): (0.00%)
SAQ 7th question, Dissatisfied: number of patients (Follow-up): 0
SAQ 7th question, Highly satisfied: % of patients (Follow-up): (30.75%)
SAQ 7th question, Highly satisfied: number of patients (Follow-up): 436
SAQ 7th question, Mostly dissatisfied: % of patients (Follow-up): (0.28%)
SAQ 7th question, Mostly dissatisfied: number of patients (Follow-up): 4
SAQ 7th question, Mostly satisfied: % of patients (Follow-up): (62.13%)
SAQ 7th question, Mostly satisfied: number of patients (Follow-up): 881
SAQ 7th question, Partly satisfied: % of patients (Follow-up): (6.84%)
SAQ 7th question, Partly satisfied: number of patients (Follow-up): 97
SAQ Question 1-1 Mildly limited, number of patients (Follow-up): 6
SAQ Question 1-1 Mildly limited, percent of patients (Follow-up): (0.43%)
SAQ Question 1-1 Moderately limited, number of patients (Follow-up): 1
SAQ Question 1-1 Moderately limited, percent of patients (Follow-up): (0.07%)
SAQ Question 1-1 Not limited, number of patients (Follow-up): 1352
SAQ Question 1-1 Not limited, percent of patients (Follow-up): (95.95%)
SAQ Question 1-1 Other reasons, number of patients (Follow-up): 5
SAQ Question 1-1 Other reasons, percent of patients (Follow-up): (0.35%)
SAQ Question 1-1 Severely limited, number of patients (Follow-up): 1
SAQ Question 1-1 Severely limited, percent of patients (Follow-up): (0.07%)
SAQ Question 1-1 Slightly limited, number of patients (Follow-up): 44
SAQ Question 1-1 Slightly limited, percent of patients (Follow-up): (3.12%)
SAQ Question 1-2 Mildly limited, number of patients (Follow-up): 8
SAQ Question 1-2 Mildly limited, percent of patients (Follow-up): (0.57%)
SAQ Question 1-2 Moderately limited, number of patients (Follow-up): 0
SAQ Question 1-2 Moderately limited, percent of patients (Follow-up): (0.00%)
SAQ Question 1-2 Not limited, number of patients (Follow-up): 1336
SAQ Question 1-2 Not limited, percent of patients (Follow-up): (94.82%)
SAQ Question 1-2 Severely limited, number of patients (Follow-up): 2
SAQ Question 1-2 Severely limited, percent of patients (Follow-up): (0.14%)
SAQ Question 1-2 Slightly limited, number of patients (Follow-up): 56
SAQ Question 1-2 Slightly limited, percent of patients (Follow-up): (3.97%)
SAQ Question 1-6: Mildly limited, patients (%) (Follow-up): (11.32%)
SAQ Question 1-6: Moderately limited, patients (%) (Follow-up): (9.19%)
SAQ Question 1-6: Not limited, patients (%) (Follow-up): (41.95%)
SAQ Question 1-6: Other reasons, patients (%) (Follow-up): (0.85%)
SAQ Question 1-6: Severely limited, patients (%) (Follow-up): (2.28%)
SAQ Question 1-6: Slightly limited, patients (%) (Follow-up): (34.40%)
SAQ Question 1-7: Mildly limited, patients (%) (Follow-up): (21.92%)
SAQ Question 1-7: Moderately limited, patients (%) (Follow-up): (6.63%)
SAQ Question 1-7: Not limited, patients (%) (Follow-up): (22.35%)
SAQ Question 1-7: Other reasons, patients (%) (Follow-up): (2.60%)
SAQ Question 1-7: Severely limited, patients (%) (Follow-up): (11.68%)
SAQ Question 1-7: Slightly limited, patients (%) (Follow-up): (34.82%)
SAQ Question 1-8: Mildly limited, patients (%) (Follow-up): (24.93%)
SAQ Question 1-8: Moderately limited, patients (%) (Follow-up): (11.85%)
SAQ Question 1-8: Not limited, patients (%) (Follow-up): (15.12%)
SAQ Question 1-8: Other reasons, patients (%) (Follow-up): (3.27%)
SAQ Question 1-8: Severely limited, patients (%) (Follow-up): (14.75%)
SAQ Question 1-8: Slightly limited, patients (%) (Follow-up): (30.09%)
SAQ Question 1-2 Not limited, number of patients [1]: 7
SAQ Question 1-2 Not limited, percent of patients [1]: (0.50%)
